Measured values as given in PMC7700809 (Molecular Biomedicine, 2020).
Read-outs that look alike come from different tables or passages of the source.

Tests used:
SARS-CoV-2 [1] = test: microbe, parasite or virus in culture; assay type: cell-based; details: Severe acute respiratory syndrome coronavirus 2, Vero; read-out: EC50 virus entry blocking
[2] = Lung distribution in mice after oral administration
[3] = In vivo plasma pharmacokinetics in mice; details: for MRT last: read-out: MRT0-t; for MRT inf: read-out: MRT0-∞
Procedure: (§1) After dosage, blood samples were collected into heparinized tubes at 2, 5, 15, 30, 60, 120, 240, 360, 540, and 720 min for the i.v. group, and at 5, 15, 30, 60, 90, 120, 240, 360, 540, 720 and 1440 min for the i.g. group. Plasma (100 μL) was isolated from the blood sample by centrifuging at 4 °C and 6000 rpm for 3 min and then stored at − 80 °C until analysis. An aliquot of 100 μL of each plasma sample was mixed with 20 μL of internal standard working solution (200 ng/mL of caffeine). Methanol (400 μL) was then added for precipitation. After vortexing for 5 min and centrifuging at 14000 rpm for 10 min, 5 μL of the supernatant was injected for LC-MS/MS analysis.
(§2) The PK parameters were analyzed through the noncompartment model using WinNonlin 6.1 software (Pharsight Corporation, Mountain View, USA), including half-life (T1/2), the peak of the plasma concentration (Cmax), the time to peak of the plasma concentration (Tmax), the area under the plasma concentration-time curve during the period of observation (AUC0-t), the area under the plasma concentration-time curve from zero to infinity (AUC0-∞), clearance (CL), apparent volume of distribution (Vd), and the mean residence time.

[4] = In vivo plasma pharmacokinetics in beagle dogs; details: Dog; for MRT last: read-out: MRT0-t; for MRT inf: read-out: MRT0-∞
Procedure: as §1, §2

SARS-CoV-2 [5] = test: microbe, parasite or virus in culture; assay type: cell-based; details: Severe acute respiratory syndrome coronavirus 2, Vero; read-out: EC50 antiviral replication effect
in vivo = details: mouse, iv, 1 mg/kg, I.V. 1 mg/kg; for AUC(0-inf): AUC0-∞; for AUC(0-inf) / AUC(0-t) / Cmax / MRT last / MRT inf / Tmax: mice; for AUC(0-t): AUC0-t; for MRT last: MRT0-t; for MRT inf: MRT0-∞; for half-life: T1/2, mice

CC[C@H]1CN2CCc3cc(OC)c(OC)cc3[C@@H]2C[C@@H]1C[C@H]1NCCc2cc(OC)c(OC)cc21 [Emetine]
EC50 (SARS-CoV-2 [1]): 19 nM
Mice lung con. ([2]; 1 mg/kg (P.O.) single dose, 1 h): 0.23 ± 0.04 ng/mL
Mice lung con. ([2]; 1 mg/kg (P.O.) single dose, 2 h): 0.50 ± 0.35 ng/mL
Mice lung con. ([2]; 1 mg/kg (P.O.) single dose, 4 h): 0.81 ± 0.16 ng/mL
Mice lung con. ([2]; 1 mg/kg (P.O.) single dose, 6 h): 1.06 ± 0.09 ng/mL
Mice lung con. ([2]; 1 mg/kg (P.O.) single dose, 9 h): 1.75 ± 0.28 ng/mL
Mice lung con. ([2]; 1 mg/kg (P.O.) single dose, 24 h): 1.13 ± 0.18 ng/mL
Mice lung con. ([2]; 1 mg/kg (P.O.) single dose, 48 h): 0.61 ± 0.09 ng/mL
Mice lung con. ([2]; 1 mg/kg (P.O.) single dose, 72 h): 0.23 ± 0.06 ng/mL
Mice lung con. ([2]; 1 mg/kg (Q.D.× 3 days, P.O.), 1 h): 6.17 ± 1.54 ng/mL
Mice lung con. ([2]; 1 mg/kg (Q.D.× 3 days, P.O.), 2 h): 6.44 ± 0.96 ng/mL
Mice lung con. ([2]; 1 mg/kg (Q.D.× 3 days, P.O.), 4 h): 6.73 ± 0.40 ng/mL
Mice lung con. ([2]; 1 mg/kg (Q.D.× 3 days, P.O.), 6 h): 7.14 ± 2.10 ng/mL
Mice lung con. ([2]; 1 mg/kg (Q.D.× 3 days, P.O.), 9 h): 7.46 ± 0.89 ng/mL
Mice lung con. ([2]; 1 mg/kg (Q.D.× 3 days, P.O.), 12 h): 7.26 ± 0.93 ng/mL
Mice lung con. ([2]; 1 mg/kg (Q.D.× 3 days, P.O.), 24 h): 4.61 ± 0.84 ng/mL
Mice lung con. ([2]; 1 mg/kg (Q.D.× 3 days, P.O.), 72 h): 2.17 ± 0.42 ng/mL
retention time in lung tissue ([2]; in vivo animal PK study, species not named at the place): over 12 h
time of maximum lung concentration ([2]; mice, 1 mg/kg single oral dose): 12 h
time of maximum lung concentration (Cmax) ([2]; mice, 1 mg/kg/day oral 3 days): 9 h
AUMC0-t ([3]; I.V. 1 mg/kg): 616 ± 181 hr*hr.*ng/mL
AUMC0-∞ ([3]; I.V. 1 mg/kg): 3472 ± 1149 hr*hr.*ng/mL
AUMC0-t ([3]; P.O. 10 mg/kg): 8355 ± 2710 hr*hr.*ng/mL
AUMC0-∞ ([3]; P.O. 10 mg/kg): 36,666 ± 31,176 hr*hr.*ng/mL
Cl ([3]; P.O. 10 mg/kg): 143.5 ± 64.88 mL/min/kg
Vz ([3]; P.O. 10 mg/kg): 174,470 ± 45,790 mL/kg
AUC(0-inf) ([3]; male, mouse, iv, I.V. 1 mg/kg): 258 ± 71 ng·h/mL
AUC(0-t) ([3]; male, mouse, iv, I.V. 1 mg/kg): 120 ± 26 ng·h/mL
C0 ([3]; male, mouse, iv, I.V. 1 mg/kg): 172 ± 86 ng/mL
Cmax ([3]; male, mouse, iv, I.V. 1 mg/kg): 111 ± 13.5 ng/mL
Tmax ([3]; male, mouse, iv, I.V. 1 mg/kg): 0.03 h
clearance ([3]; male, mouse, iv, I.V. 1 mg/kg): 68.6 mL/min/kg
half-life ([3]; male, mouse, iv, I.V. 1 mg/kg): 6.24 ± 1.17 h
MRT last ([3]; male, mouse, iv, I.V. 1 mg/kg): 5.06 ± 0.57 h
MRT inf ([3]; male, mouse, iv, I.V. 1 mg/kg): 13.4 ± 1.37 h
Vd ([3]; male, mouse, iv, I.V. 1 mg/kg, read-out: Vz): 38.4 L/kg
AUC(0-inf) ([3]; male, mouse, po, P.O. 10 mg/kg): 1340 ± 625 ng·h/mL
AUC(0-t) ([3]; male, mouse, po, P.O. 10 mg/kg): 811 ± 208 ng·h/mL
Cmax ([3]; male, mouse, po, P.O. 10 mg/kg): 61.6 ± 15.1 ng/mL
Tmax ([3]; male, mouse, po, P.O. 10 mg/kg): 1.67 ± 0.58 h
half-life ([3]; male, mouse, po, P.O. 10 mg/kg): 15.9 ± 8.22 h
bioavailability ([3]; male, mouse, po, P.O. 10 mg/kg vs I.V. 1 mg/kg, read-out: F (oral bioavailability)): 52.1 ± 24.2%
MRT last ([3]; male, mouse, po, P.O. 10 mg/kg): 10.2 ± 1.31 h
MRT inf ([3]; male, mouse, po, P.O. 10 mg/kg): 24.3 ± 10 h
AUMC0-t ([4]; I.V. 1 mg/kg): 1331 ± 695 hr*hr.*ng/mL
AUMC0-∞ ([4]; I.V. 1 mg/kg): 1626 ± 679 hr*hr.*ng/mL
AUMC0-t ([4]; P.O. 5 mg/kg): 12,464 ± 9313 hr*hr.*ng/mL
AUMC0-∞ ([4]; P.O. 5 mg/kg): 19,162 ± 13,435 hr*hr.*ng/mL
Cl ([4]; P.O. 5 mg/kg): 72.95 ± 62.47 mL/min/kg
Vz ([4]; P.O. 5 mg/kg): 51,033 ± 45,021 mL/kg
AUC(0-inf) ([4]; beagle, iv, I.V. 1 mg/kg): 468 ± 298 ng·h/mL
AUC(0-t) ([4]; beagle, iv, I.V. 1 mg/kg): 449 ± 298 ng·h/mL
C0 ([4]; beagle, iv, I.V. 1 mg/kg): 351 ± 44 ng/mL
Cmax ([4]; beagle, iv, I.V. 1 mg/kg): 260 ± 66.7 ng/mL
Tmax ([4]; beagle, iv, I.V. 1 mg/kg): 0.03 h
clearance ([4]; beagle, iv, I.V. 1 mg/kg): 45.8 mL/min/kg
half-life ([4]; beagle, iv, I.V. 1 mg/kg): 2.45 ± 0.91 h
MRT last ([4]; beagle, iv, I.V. 1 mg/kg): 3.2 ± 0.78 h
MRT inf ([4]; beagle, iv, I.V. 1 mg/kg): 3.82 ± 0.86 h
Vd ([4]; beagle, iv, I.V. 1 mg/kg, read-out: Vz): 9.55 ± 5.26 L/kg
AUC(0-inf) ([4]; beagle, po, P.O. 5 mg/kg): 1740 ± 1080 ng·h/mL
AUC(0-t) ([4]; beagle, po, P.O. 5 mg/kg): 1550 ± 964 ng·h/mL
Cmax ([4]; beagle, po, P.O. 5 mg/kg): 245 ± 164 ng/mL
Tmax ([4]; beagle, po, P.O. 5 mg/kg): 0.25 h
half-life ([4]; beagle, po, P.O. 5 mg/kg): 7.99 ± 0.35 h
bioavailability ([4]; beagle, po, P.O. 5 mg/kg vs I.V. 1 mg/kg, read-out: F (oral bioavailability)): 74.2 ± 46.2%
MRT last ([4]; beagle, po, P.O. 5 mg/kg): 7.63 ± 1.32 h
MRT inf ([4]; beagle, po, P.O. 5 mg/kg): 10.7 ± 1.21 h
EC50 (SARS-CoV-2 [5]): 7 nM
AUC(0-inf) (in vivo; male, Kidney): 99100 ng·h/mL
AUC(0-inf) (in vivo; male, Lung): 65400 ng·h/mL
AUC(0-t) (in vivo; Kidney): 37000 ng·h/mL
AUC(0-t) (in vivo; Liver): 41300 ng·h/mL
AUC(0-t) (in vivo; Lung): 35400 ng·h/mL
AUC(0-inf) (in vivo; Liver): 139000 ng·h/mL
Cmax (in vivo; Kidney): 4550 ng/mL
Cmax (in vivo; Liver): 4420 ng/mL
Cmax (in vivo; Lung): 8580 ng/mL
MRT last (in vivo; Kidney): 5.23 h
MRT last (in vivo; Liver): 6.67 h
MRT last (in vivo; Lung): 5.13 h
MRT inf (in vivo; Kidney): 28.4 h
MRT inf (in vivo; Liver): 28 h
MRT inf (in vivo; Lung): 15.9 h
half-life (in vivo; Kidney): 20.9 h
half-life (in vivo; Liver): 17.3 h
half-life (in vivo; Lung): 11.5 h
Tmax (in vivo; Kidney): 0.5 h
Tmax (in vivo; Liver): 9 h
Tmax (in vivo; Lung): 0.03 h
